How the values were obtained:
Details in all cases: 72 h
Calu-3 [1] = test: drug sensitivity score (DSS) for viability; higher = more toxic; extreme values may be limits of the assay
Caco-2 [2] = test: as above
HepG2 [3] = test: as above
U2OS [4] = test: as above
Calu-3 [5] = test: cell viability relative to DMSO; higher = less toxic
Caco-2 [6] = test: as above
HepG2 [7] = test: as above
U2OS [8] = test: as above
Calu-3 [9] = test: relative viability EC50 (midpoint between 100% and the lowest measured viability); higher = less toxic
Caco-2 [10] = test: as above
HepG2 [11] = test: as above
U2OS [12] = test: as above
Vero E6 [13] = test: drug sensitivity score (DSS) for viability; higher = more toxic; extreme values may be limits of the assay
Vero E6 [14] = test: cell viability relative to DMSO; higher = less toxic
Vero E6 [15] = test: relative viability EC50 (midpoint between 100% and the lowest measured viability); higher = less toxic

Structure (SMILES): COc1ccc2c(c1)c(CC(=O)O)c(C)n2C(=O)c1ccc(Cl)cc1 [indomethacin]
- drug sensitivity score (Calu-3 [1]): 1
- drug sensitivity score (Caco-2 [2]): 0
- drug sensitivity score (HepG2 [3]): 0
- drug sensitivity score (U2OS [4]): 0
- cell viability (Calu-3 [5]; 1 nM): 99.2%
- cell viability (Calu-3 [5]; 10 nM): 96.4%
- cell viability (Calu-3 [5]; 100 nM): 90.7%
- cell viability (Calu-3 [5]; 1000 nM): 84.3%
- cell viability (Calu-3 [5]; 10000 nM): 91.8%
- cell viability (Caco-2 [6]; 1 nM): 95.6%
- cell viability (Caco-2 [6]; 10 nM): 98.6%
- cell viability (Caco-2 [6]; 100 nM): 101%
- cell viability (Caco-2 [6]; 1000 nM): 98.4%
- cell viability (Caco-2 [6]; 10000 nM): 94.6%
- cell viability (HepG2 [7]; 1 nM): 105%
- cell viability (HepG2 [7]; 10 nM): 100%
- cell viability (HepG2 [7]; 100 nM): 108%
- cell viability (HepG2 [7]; 1000 nM): 94.7%
- cell viability (HepG2 [7]; 10000 nM): 95%
- cell viability (U2OS [8]; 1 nM): 98.9%
- cell viability (U2OS [8]; 10 nM): 102%
- cell viability (U2OS [8]; 100 nM): 97.8%
- cell viability (U2OS [8]; 1000 nM): 101%
- cell viability (U2OS [8]; 10000 nM): 99.7%
- relative viability EC50 (Calu-3 [9]): > 10 µM
- relative viability EC50 (Caco-2 [10]): > 10 µM
- relative viability EC50 (HepG2 [11]): > 10 µM
- relative viability EC50 (U2OS [12]): > 10 µM

Structure (SMILES): C[C@]12CC/C(=N\OCCN)C[C@@H]1C(=O)C[C@@H]1[C@@H]2CC[C@]2(C)C(=O)CC[C@@H]12 [istaroxime]
- drug sensitivity score (Calu-3 [1]): 0
- drug sensitivity score (Vero E6 [13]): 2.2
- drug sensitivity score (Caco-2 [2]): 2.1
- drug sensitivity score (HepG2 [3]): 0
- drug sensitivity score (U2OS [4]): 3.2
- cell viability (Calu-3 [5]; 1 nM): 94.5%
- cell viability (Calu-3 [5]; 10 nM): 96.5%
- cell viability (Calu-3 [5]; 100 nM): 93%
- cell viability (Calu-3 [5]; 1000 nM): 91.1%
- cell viability (Calu-3 [5]; 10000 nM): 95.5%
- cell viability (Vero E6 [14]; 1 nM): 106%
- cell viability (Vero E6 [14]; 10 nM): 105%
- cell viability (Vero E6 [14]; 100 nM): 98.3%
- cell viability (Vero E6 [14]; 1000 nM): 97.9%
- cell viability (Vero E6 [14]; 10000 nM): 61.1%
- cell viability (Caco-2 [6]; 1 nM): 97.6%
- cell viability (Caco-2 [6]; 10 nM): 93.1%
- cell viability (Caco-2 [6]; 100 nM): 95.7%
- cell viability (Caco-2 [6]; 1000 nM): 88.4%
- cell viability (Caco-2 [6]; 10000 nM): 71.7%
- cell viability (HepG2 [7]; 1 nM): 110%
- cell viability (HepG2 [7]; 10 nM): 102%
- cell viability (HepG2 [7]; 100 nM): 88.6%
- cell viability (HepG2 [7]; 1000 nM): 99.7%
- cell viability (HepG2 [7]; 10000 nM): 87.2%
- cell viability (U2OS [8]; 1 nM): 98.8%
- cell viability (U2OS [8]; 10 nM): 96.9%
- cell viability (U2OS [8]; 100 nM): 101%
- cell viability (U2OS [8]; 1000 nM): 95.7%
- cell viability (U2OS [8]; 10000 nM): 51.4%
- relative viability EC50 (Calu-3 [9]): > 10 µM
- relative viability EC50 (HepG2 [11]): > 10 µM

Structure (SMILES): CC(=O)SCCC(=O)N1[C@H](C)CCC[C@@H]1C(=O)O [methiopril]
- drug sensitivity score (Calu-3 [1]): 0.1
- drug sensitivity score (Caco-2 [2]): 0
- drug sensitivity score (HepG2 [3]): 0
- cell viability (Calu-3 [5]; 1 nM): 99.2%
- cell viability (Calu-3 [5]; 10 nM): 99.6%
- cell viability (Calu-3 [5]; 100 nM): 96.8%
- cell viability (Calu-3 [5]; 1000 nM): 97.5%
- cell viability (Calu-3 [5]; 10000 nM): 88.1%
- cell viability (Caco-2 [6]; 1 nM): 96.1%
- cell viability (Caco-2 [6]; 10 nM): 103%
- cell viability (Caco-2 [6]; 100 nM): 93.8%
- cell viability (Caco-2 [6]; 1000 nM): 100%
- cell viability (Caco-2 [6]; 10000 nM): 89.6%
- cell viability (HepG2 [7]; 1 nM): 109%
- cell viability (HepG2 [7]; 10 nM): 99.3%
- cell viability (HepG2 [7]; 100 nM): 98.6%
- cell viability (HepG2 [7]; 1000 nM): 96%
- cell viability (HepG2 [7]; 10000 nM): 97.2%
- relative viability EC50 (Calu-3 [9]): > 10 µM
- relative viability EC50 (Caco-2 [10]): > 10 µM
- relative viability EC50 (HepG2 [11]): > 10 µM

Structure (SMILES): COc1ccc(OC)c(C(O)C(C)N)c1 (stereo unspecified) [methoxamine]
- drug sensitivity score (Calu-3 [1]): 0
- drug sensitivity score (Vero E6 [13]): 0
- cell viability (Calu-3 [5]; 1 nM): 93.7%
- cell viability (Calu-3 [5]; 10 nM): 99.6%
- cell viability (Calu-3 [5]; 100 nM): 103%
- cell viability (Calu-3 [5]; 1000 nM): 100%
- cell viability (Calu-3 [5]; 10000 nM): 109%
- cell viability (Vero E6 [14]; 1 nM): 109%
- cell viability (Vero E6 [14]; 10 nM): 107%
- cell viability (Vero E6 [14]; 100 nM): 99.4%
- cell viability (Vero E6 [14]; 1000 nM): 102%
- cell viability (Vero E6 [14]; 10000 nM): 102%
- relative viability EC50 (Calu-3 [9]): > 10 µM
- relative viability EC50 (Vero E6 [15]): > 10 µM

Structure (SMILES): O=C(O)c1cc(/N=N/c2ccc(O)c(C(=O)O)c2)ccc1O [olsalazine]
- drug sensitivity score (Calu-3 [1]): 0
- drug sensitivity score (Caco-2 [2]): 0
- drug sensitivity score (U2OS [4]): 0
- cell viability (Calu-3 [5]; 1 nM): 107%
- cell viability (Calu-3 [5]; 10 nM): 94.3%
- cell viability (Calu-3 [5]; 100 nM): 94.4%
- cell viability (Calu-3 [5]; 1000 nM): 100%
- cell viability (Calu-3 [5]; 10000 nM): 105%
- cell viability (Caco-2 [6]; 1 nM): 96.8%
- cell viability (Caco-2 [6]; 10 nM): 107%
- cell viability (Caco-2 [6]; 100 nM): 104%
- cell viability (Caco-2 [6]; 1000 nM): 106%
- cell viability (Caco-2 [6]; 10000 nM): 91.9%
- cell viability (U2OS [8]; 1 nM): 99%
- cell viability (U2OS [8]; 10 nM): 102%
- cell viability (U2OS [8]; 100 nM): 103%
- cell viability (U2OS [8]; 1000 nM): 107%
- cell viability (U2OS [8]; 10000 nM): 103%
- relative viability EC50 (Calu-3 [9]): > 10 µM
- relative viability EC50 (Caco-2 [10]): > 10 µM
- relative viability EC50 (U2OS [12]): > 10 µM
